According to the NIST ThermoML archive (doi:10.1016/j.jct.2017.08.004):
± gives the expanded uncertainty stated by the source.

Assay: molar heat capacity at constant pressure
Conditions: 101.33 kPa, Crystal

OC[C@@H](O)C(O)[C@H](O)CO [D-arabitol]
molar heat capacity at constant pressure (170 K, relaxation calorimetry): 123.02 ± 7.5 J/K/mol
molar heat capacity at constant pressure (171.3 K, relaxation calorimetry): 123.63 ± 5 J/K/mol
molar heat capacity at constant pressure (180 K, relaxation calorimetry): 128.94 ± 7.9 J/K/mol
molar heat capacity at constant pressure (181.38 K, relaxation calorimetry): 129.86 ± 5.3 J/K/mol
molar heat capacity at constant pressure (188.15 K, Small sample (50 mg) DSC): 120.48 ± 9.8 J/K/mol
molar heat capacity at constant pressure (189.15 K, Small sample (50 mg) DSC): 123.07 ± 10 J/K/mol
molar heat capacity at constant pressure (190 K, relaxation calorimetry): 134.84 ± 8.3 J/K/mol
molar heat capacity at constant pressure (190.15 K, Small sample (50 mg) DSC): 124.65 ± 10 J/K/mol
molar heat capacity at constant pressure (191.15 K, Small sample (50 mg) DSC): 125.58 ± 10 J/K/mol
molar heat capacity at constant pressure (191.48 K, relaxation calorimetry): 135.82 ± 5.5 J/K/mol
molar heat capacity at constant pressure (192.15 K, Small sample (50 mg) DSC): 126.38 ± 10 J/K/mol
molar heat capacity at constant pressure (193.15 K, Small sample (50 mg) DSC): 127.14 ± 10 J/K/mol
molar heat capacity at constant pressure (194.15 K, Small sample (50 mg) DSC): 128.51 ± 10 J/K/mol
molar heat capacity at constant pressure (195.15 K, Small sample (50 mg) DSC): 129.68 ± 11 J/K/mol
molar heat capacity at constant pressure (196.15 K, Small sample (50 mg) DSC): 130.93 ± 11 J/K/mol
molar heat capacity at constant pressure (197.15 K, Small sample (50 mg) DSC): 131.96 ± 11 J/K/mol
molar heat capacity at constant pressure (198.15 K, Small sample (50 mg) DSC): 132.82 ± 11 J/K/mol
molar heat capacity at constant pressure (199.15 K, Small sample (50 mg) DSC): 133.79 ± 11 J/K/mol
molar heat capacity at constant pressure (200 K, relaxation calorimetry): 140.73 ± 8.6 J/K/mol
molar heat capacity at constant pressure (200.15 K, Small sample (50 mg) DSC): 134.6 ± 11 J/K/mol
molar heat capacity at constant pressure (201.15 K, Small sample (50 mg) DSC): 135.54 ± 11 J/K/mol
molar heat capacity at constant pressure (201.59 K, relaxation calorimetry): 141.2 ± 5.7 J/K/mol
molar heat capacity at constant pressure (202.15 K, Small sample (50 mg) DSC): 136.28 ± 11 J/K/mol
molar heat capacity at constant pressure (203.15 K, Small sample (50 mg) DSC): 137.06 ± 11 J/K/mol
molar heat capacity at constant pressure (204.15 K, Small sample (50 mg) DSC): 137.97 ± 11 J/K/mol
molar heat capacity at constant pressure (205.15 K, Small sample (50 mg) DSC): 138.38 ± 11 J/K/mol
molar heat capacity at constant pressure (206.15 K, Small sample (50 mg) DSC): 139.19 ± 11 J/K/mol
molar heat capacity at constant pressure (207.15 K, Small sample (50 mg) DSC): 139.97 ± 11 J/K/mol
molar heat capacity at constant pressure (208.15 K, Small sample (50 mg) DSC): 140.52 ± 11 J/K/mol
molar heat capacity at constant pressure (209.15 K, Small sample (50 mg) DSC): 141.24 ± 11 J/K/mol
molar heat capacity at constant pressure (210 K, relaxation calorimetry): 146.63 ± 9 J/K/mol
molar heat capacity at constant pressure (210.15 K, Small sample (50 mg) DSC): 141.94 ± 12 J/K/mol
molar heat capacity at constant pressure (211.15 K, Small sample (50 mg) DSC): 142.48 ± 12 J/K/mol
molar heat capacity at constant pressure (211.7 K, relaxation calorimetry): 147.25 ± 6 J/K/mol
molar heat capacity at constant pressure (212.15 K, Small sample (50 mg) DSC): 142.99 ± 12 J/K/mol
molar heat capacity at constant pressure (213.15 K, Small sample (50 mg) DSC): 143.53 ± 12 J/K/mol
molar heat capacity at constant pressure (214.15 K, Small sample (50 mg) DSC): 144.41 ± 12 J/K/mol
molar heat capacity at constant pressure (215.15 K, Small sample (50 mg) DSC): 145.07 ± 12 J/K/mol
molar heat capacity at constant pressure (216.15 K, Small sample (50 mg) DSC): 145.48 ± 12 J/K/mol
molar heat capacity at constant pressure (217.15 K, Small sample (50 mg) DSC): 146.17 ± 12 J/K/mol
molar heat capacity at constant pressure (218.15 K, Small sample (50 mg) DSC): 147.07 ± 12 J/K/mol
molar heat capacity at constant pressure (219.15 K, Small sample (50 mg) DSC): 147.64 ± 12 J/K/mol
molar heat capacity at constant pressure (220 K, relaxation calorimetry): 152.57 ± 9.3 J/K/mol
molar heat capacity at constant pressure (220.15 K, Small sample (50 mg) DSC): 148.47 ± 12 J/K/mol
molar heat capacity at constant pressure (221.15 K, Small sample (50 mg) DSC): 149.24 ± 12 J/K/mol
molar heat capacity at constant pressure (221.79 K, relaxation calorimetry): 153.65 ± 6.2 J/K/mol
molar heat capacity at constant pressure (222.15 K, Small sample (50 mg) DSC): 149.98 ± 12 J/K/mol
molar heat capacity at constant pressure (223.15 K, Small sample (50 mg) DSC): 150.71 ± 12 J/K/mol
molar heat capacity at constant pressure (224.15 K, Small sample (50 mg) DSC): 151.3 ± 12 J/K/mol
molar heat capacity at constant pressure (225.15 K, Small sample (50 mg) DSC): 152.01 ± 12 J/K/mol
molar heat capacity at constant pressure (226.15 K, Small sample (50 mg) DSC): 152.68 ± 12 J/K/mol
molar heat capacity at constant pressure (227.15 K, Small sample (50 mg) DSC): 153.31 ± 12 J/K/mol
molar heat capacity at constant pressure (228.15 K, Small sample (50 mg) DSC): 153.85 ± 12 J/K/mol
molar heat capacity at constant pressure (229.15 K, Small sample (50 mg) DSC): 154.52 ± 13 J/K/mol
molar heat capacity at constant pressure (230 K, relaxation calorimetry): 158.55 ± 9.7 J/K/mol
molar heat capacity at constant pressure (230.15 K, Small sample (50 mg) DSC): 155.25 ± 13 J/K/mol
molar heat capacity at constant pressure (231.15 K, Small sample (50 mg) DSC): 155.76 ± 13 J/K/mol
molar heat capacity at constant pressure (231.88 K, relaxation calorimetry): 159.8 ± 9.8 J/K/mol
molar heat capacity at constant pressure (232.15 K, Small sample (50 mg) DSC): 156.46 ± 13 J/K/mol
molar heat capacity at constant pressure (233.15 K, Small sample (50 mg) DSC): 157.18 ± 13 J/K/mol
molar heat capacity at constant pressure (234.15 K, Small sample (50 mg) DSC): 157.71 ± 13 J/K/mol
molar heat capacity at constant pressure (235.15 K, Small sample (50 mg) DSC): 158.49 ± 13 J/K/mol
molar heat capacity at constant pressure (236.15 K, Small sample (50 mg) DSC): 159.12 ± 13 J/K/mol
molar heat capacity at constant pressure (237.15 K, Small sample (50 mg) DSC): 159.84 ± 13 J/K/mol
molar heat capacity at constant pressure (238.15 K, Small sample (50 mg) DSC): 160.39 ± 13 J/K/mol
molar heat capacity at constant pressure (239.15 K, Small sample (50 mg) DSC): 160.99 ± 13 J/K/mol
molar heat capacity at constant pressure (240 K, relaxation calorimetry): 164.59 ± 10 J/K/mol
molar heat capacity at constant pressure (240.15 K, Small sample (50 mg) DSC): 161.64 ± 13 J/K/mol
molar heat capacity at constant pressure (241.15 K, Small sample (50 mg) DSC): 162.22 ± 13 J/K/mol
molar heat capacity at constant pressure (241.88 K, relaxation calorimetry): 165.73 ± 10 J/K/mol
molar heat capacity at constant pressure (242.15 K, Small sample (50 mg) DSC): 162.77 ± 13 J/K/mol
molar heat capacity at constant pressure (243.15 K, Small sample (50 mg) DSC): 163.32 ± 13 J/K/mol
molar heat capacity at constant pressure (244.15 K, Small sample (50 mg) DSC): 163.71 ± 13 J/K/mol
molar heat capacity at constant pressure (245.15 K, Small sample (50 mg) DSC): 164.33 ± 13 J/K/mol
molar heat capacity at constant pressure (246.15 K, Small sample (50 mg) DSC): 165.01 ± 13 J/K/mol
molar heat capacity at constant pressure (247.15 K, Small sample (50 mg) DSC): 165.5 ± 13 J/K/mol
molar heat capacity at constant pressure (248.15 K, Small sample (50 mg) DSC): 166.22 ± 14 J/K/mol
molar heat capacity at constant pressure (249.15 K, Small sample (50 mg) DSC): 167 ± 14 J/K/mol
molar heat capacity at constant pressure (250 K, relaxation calorimetry): 170.71 ± 10 J/K/mol
